Like-named read-outs stand apart in the source and are kept apart here.
Target: T1, GST-Bcl-B (Homo sapiens, UniProt Q9HD36)
T1 sequence (Q9HD36 1-182 limits assumed): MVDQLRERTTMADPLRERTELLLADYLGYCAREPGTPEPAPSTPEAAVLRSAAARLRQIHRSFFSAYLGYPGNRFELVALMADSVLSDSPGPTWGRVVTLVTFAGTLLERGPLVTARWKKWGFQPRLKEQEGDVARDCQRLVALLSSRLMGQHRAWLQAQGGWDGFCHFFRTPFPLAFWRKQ
Assay: Bcl-B/FITC-TR3-r8 fluorescence polarization competition (displacement) assay, HTS and dose-response

[1] = Table 7, NCI Mechanistic library, Binding Assay, FP, Concentration 0.02 uM
[2] = read-out: Result Value (Result Type % Inhibition), BCL-b/TR3
[3] = Table 8, NCI Structural library, Binding Assay, FP, Concentration 0.02 uM
[4] = read-out: Result Value (Result Type % Inhibition), BCL-b/TR3, Table 8, NCI Structural library, Binding Assay, FP, Concentration 0.02 uM
[5] = read-out: Result Value (Result Type % Inhibition), BCL-b/TR3, Table 7, NCI Mechanistic library, Binding Assay, FP, Concentration 0.02 uM

| Structure (SMILES) | F Ratio [1] | Is Hit [1] | inhibition at 0.02 µM [2] | F Ratio [3] | Is Hit [3] | also measured |
| --- | --- | --- | --- | --- | --- | --- |
| O=C1c2ccccc2C(=O)c2c(O)c(O)cc(O)c21 [Compound 10447] | 0.5532 | Yes | 146% |  |  |  |
| Cc1ccc(/N=N/c2c(O)c(S(=O)(=O)O)cc3cc(S(=O)(=O)O)ccc23)c(C)c1 [Compound 10455] |  |  | 50.7% |  |  | F Ratio: 0.4406; Is Hit: Yes |
| N=C1C=CC(=C(c2ccc(N)cc2)c2ccc(N)cc2)C=C1 [Compound 10460] |  |  | 81.7% | 0.1378 | Yes |  |
| Oc1c(C(O)(c2ccccc2)c2ccc3ccccc3c2O)ccc2ccccc12 [Compound 13984] |  |  | 87% | 0.7704 | Yes |  |
| CN(C)CS/C(N)=N\C(O)C(Cl)(Cl)Cl (stereo not drawn) [Compound 14555] |  |  |  | 0.6767 | Yes | inhibition at 0.02 µM [4]: 59.9% |
| CCN(CCO)CCNc1ccc(C)c2sc3ccccc3c(=O)c12 [Compound 20534] | 0.6411 | Yes | 74.4% |  |  |  |
| CCN1C=C/C(=C\C=C\c2cc[n+](CC)c3ccccc23)C2C=CC=CC21 (stereo not drawn) [Compound 34391] | 0.2486 | Yes | 104% |  |  |  |
| O=S(=O)(O)c1cc(/N=N/c2cc(S(=O)(=O)O)c3ccccc3c2O)ccc1/C=C/c1ccc(/N=N/c2cc(S(=O)(=O)O)c3ccccc3c2O)cc1S(=O)(=O)O [Compound 34931] | 0.0509 | Yes | 80.3% |  |  |  |
| CN(C)C1C(O)=C(C(=O)NCN2CCCC2)C(=O)C2(O)C(O)=C3C(=O)c4c(O)cccc4C(C)(O)C3CC12 (stereo not drawn) [Compound 50352] |  |  |  | 0.2153 | Yes | inhibition at 0.02 µM [4]: 122% |
| O=C1c2cc([N+](=O)[O-])ccc2-c2ccc3c4ccc5c6c(ccc(c7ccc1c2c73)c64)C(=O)c1cc([N+](=O)[O-])ccc1-5 [Compound 51535] |  |  | 146% | 0.4823 | Yes |  |
| Cc1cc2c(C(C)C)c(O)c(O)c(C=O)c2c(O)c1-c1c(C)cc2c(C(C)C)c(O)c(O)c(C=O)c2c1O [Compound 56817] | 0.1472 | Yes |  |  |  | inhibition at 0.02 µM [5]: 57.3% |
| Cc1cc2c(c3oc(C4OC4C4OC4C)cc(=O)c13)C(=O)c1c(O)c(C3CC(C)(N(C)C)C(O)C(C)O3)cc(C3CC(N(C)C)C(O)C(C)O3)c1C2=O (stereo not drawn) [Compound 70929] | 0.1099 | Yes |  |  |  | inhibition at 0.02 µM [5]: 105% |

Now from value to compound, other results behind:

| F Ratio [1] | Is Hit [1] | inhibition at 0.02 µM [2] | F Ratio [3] | Is Hit [3] | Structure (SMILES) | also measured |
| --- | --- | --- | --- | --- | --- | --- |
|  |  | 84.6% | 0.4022 | Yes | O=S(=O)(O)c1cc(/N=[N+](\[O-])c2cc(S(=O)(=O)O)c3ccccc3c2)cc2ccccc12 [Compound 37031] |  |
|  |  | 66.1% | 0.1219 | Yes | O=S(=O)(O)c1cc(O)c2c(O)c(/N=N/c3cccc4ccccc34)c(S(=O)(=O)O)cc2c1 [Compound 45208] |  |
|  |  | 119% | 0.05945 | Yes | O=S(=O)(O)c1ccc2c(/N=N/c3c(O)ccc4ccccc34)cccc2c1 [Compound 45576] |  |
|  |  | 84.6% | 0.1069 | Yes | O=S(=O)(O)c1ccc2c(/N=N/c3cccc4ccccc34)c(O)c(S(=O)(=O)O)cc2c1 [Compound 45583] |  |
| 1.4371 | Yes | 72.3% |  |  | [O-][n+]1c2c([n+]([O-])c3ccccc31)-c1cccc3cccc-2c13 [Compound 60309] |  |
|  |  | 71.6% | 0.1609 | Yes | Nc1ccc(/N=N/c2ccc(-c3ccc(O)cc3)cc2)c2ccc(S(=O)(=O)O)cc12 [Compound 65528] |  |
|  |  | 93.4% | 0.3746 | Yes | CN(C)C1C(O)=C(C(N)=O)C(=O)C2(O)C(O)=C3C(=O)c4c(O)cccc4C(C)(O)C3CC12.CS(=O)(=O)O (stereo not drawn) [Compound 69343] |  |
